Each structure is given as a SMILES string. Like-named read-outs stand apart in the source and are kept apart here. A value given as a limit tells only on which side of the number the result lay.

This note sets out measurements from US11866405B2, “Substituted indazoles as IRAK4 inhibitors” (AstraZeneca AB, priority 2020, dated 2024).

For assay [1], the target named is human recombinant IRAK4 protein (Homo sapiens (Human), UniProt Q9NWZ3). Description: IRAK4 enzyme assay (mass spectrometry readout). Format: biochemical. The following applies: 3 mM ATP, 0.2 nM enzyme; geometric mean of at least n=2, * single experiment. The procedure, abridged:
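0.2 nM IRAK4 preincubated 15 min at room temperature with compound (10-point half-log series, top 1 μM or 10 μM) in pH 7.4 Tris buffer with 3 mM ATP; 10 μM peptide substrate added, 2 h at room temperature, formic acid stop. Phospho/unphospho peptide ratio by LC-MS/MS; potency from curve fit, geometric mean of n≥2 or single run.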

Assay [2] concerns IL-1β stimulated IL-8 release in hTHP1 cells. Description: IL-1β-induced IL-8 release in human THP-1 monocyte cell line. The following applies: THP-1 cells, IL-1β 1.8 ng/mL. Format: cell-based. Here is the method:
Effect of IRAK4 Inhibitors on IL-1β-Induced Cytokine Release in Human THP-1 Monocyte Cell Line
THP-1 cells were cultured in RPMI 1640 (Gibco 72400-021) containing 10% FBS (Gibco 10270-106), 1 mM Na-pyruvate (Gibco 11360-070) and 100 U/mL Penicillin-Streptomycin (Gibco 15140-122). Cells were plated at 5×10^4 cells per well in 384 well Echo certified plates (Labcyte PPT-0200) to which compounds had been added at various concentrations (10 point half log dose response with a final top concentration of 10 μM) using an Echo 655 (Labcyte Inc). The plate was incubated for 1 h at 37° C., then recombinant […] (R&D Systems 201-LB-025/CF) was added to a final concentration of 1.8 ng/mL. The plates were incubated at 37° C. for 18h. The plates were centrifuged at 250×g for four minutes, then 1.6 μL of the cell supernatant was transferred to a white low volume 384 well plate (Greiner #784075) using acoustic dispensing on an Echo 655. Next, 200 nL of acceptor bead (5 mg/mL) and biotinylated anti-IL-8 antibody (500 nM) was added using acoustic dispensing (beads and antibody were from a PerkinElmer 18 Alpha LISA detection kit, AL224C). The plate was sealed, briefly centrifuged, then incubated at room temperature for 1 h. Afterwards, 200 nL of donor bead solution (5 mg/mL) was added, the plate sealed and briefly centrifuged, then incubated for 1 h before being read on an Envision plate reader to allow determination the concentration of IRAK4 inhibitor required to effect a 50% reduction in the amount of IL-8 released following IL-1β stimulation in THP1 cells (Table 2). The quantified data were analysed in Genedata Screener 15 (Genedata AG). Data presented are the geometric mean of at least n=2, or as denoted by an * are obtained from a single experiment.

The target of assay [3] is IRAK4 auto-phosphorylation (Homo sapiens (Human), UniProt Q9NWZ3). Description: IRAK4 phosphorylation cell assay in IL-1β-stimulated Karpas-299 cells. It counts as cell-based. The settings on record: IL-1β 22.7 ng/mL, pIRAK4 (Thr345/Ser346), geometric mean of at least 2 experiments. In a few lines: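 Karpas-299 cells were preincubated 1 h at 37 °C with compound (10-point half-log series, top 30 μM), then stimulated 10 min with 22.7 ng/mL IL-1β. Cells were fixed and stained for pIRAK4 (Thr345/Ser346), and per-cell fluorescence was quantified by high-content imaging. IC50 values are geometric means of at least 2 experiments.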

The mark [4] stands for this setting: Homo sapiens, THP-1, 18 h, geometric mean of at least n=2, * n = 1, read-out: hTHP1, IL1β stim, IL8 release red. IC50.
[5] abbreviates: 18 h, geometric mean of at least n=2, * n = 1, read-out: hTHP1, IL1β stim, IL8 release red. IC50.

human recombinant IRAK4 protein, sequence (Q9NWZ3 whole entry): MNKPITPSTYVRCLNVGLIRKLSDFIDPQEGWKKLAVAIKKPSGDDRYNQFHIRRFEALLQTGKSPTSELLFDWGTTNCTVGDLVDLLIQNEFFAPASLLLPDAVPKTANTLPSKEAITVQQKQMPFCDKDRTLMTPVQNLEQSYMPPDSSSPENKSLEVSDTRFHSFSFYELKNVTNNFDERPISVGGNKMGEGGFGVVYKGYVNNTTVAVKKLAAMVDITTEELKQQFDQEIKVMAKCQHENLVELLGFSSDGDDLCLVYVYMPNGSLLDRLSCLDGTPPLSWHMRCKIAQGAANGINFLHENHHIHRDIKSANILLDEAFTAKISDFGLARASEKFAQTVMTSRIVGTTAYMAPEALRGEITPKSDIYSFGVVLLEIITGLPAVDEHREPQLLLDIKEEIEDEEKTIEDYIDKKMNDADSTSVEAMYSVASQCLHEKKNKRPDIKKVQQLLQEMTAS
IRAK4 auto-phosphorylation, sequence (Q9NWZ3 whole entry): as above

For the molecule `O=C(Nc1cnn2cccnc12)c1cc2cn([C@H]3CC[C@H](O)CC3)nc2cc1OC1CC1` [Example 57, 6-Cyclopropoxy-2-((1r,4r)-4-hydroxycyclohexyl)-N-(pyrazolo[1,5-a]pyrimidin-3-yl)-2H-indazole-5-carboxamide], the results for the IC50 in assay [1], in assay [2] (setting [4]) and in assay [3] were 0.0008 µM, 0.035 µM and 0.06 µM, respectively.
As to `O=C(Nc1cnn2cccnc12)c1cc2cn([C@@H]3CCC[C@H](O)C3)nc2cc1OC1CC1` [Example 17, 6-cyclopropoxy-2-((1R,3S)-3-hydroxycyclohexyl)-N-(pyrazolo[1,5-a]pyrimidin-3-yl)-2H-indazole-5-carboxamide], the results for the IC50 in assay [1], in assay [2] (setting [4]) and in assay [3] were 0.001 µM, 0.024 µM and 0.05 µM, respectively.
For `COc1cc2nn([C@@H]3CCC(N(C)C(C)=O)C[C@H]3C)cc2cc1C(=O)Nc1cnc2cccnn12` (single isomer, unassigned) [Example 37, N-(imidazo[1,2-b]pyridazin-3-yl)-6-methoxy-2-(1R,2R,4R*)-2-methyl-4-(N-methylacetamido)cyclohexyl)-2H-indazole-5-carboxamide], the concentration for half-maximal inhibition (IC50) (in general, the point on the concentration scale where inhibition reaches its midpoint) in assay [1] amounted to 0.0003 µM; in assay [2] (setting [4]), 0.003 µM; in assay [3] it was 0.006 µM.
Consider `COc1cc2nn([C@H]3CC[C@@H](O)CC3)cc2cc1C(=O)Nc1cnc2cccnn12` [Example 7, 2-((1s,4s)-4-Hydroxycyclohexyl)-N-(imidazo[1,2-b]pyridazin-3-yl)-6-methoxy-2H-indazole-5-carboxamide], for which the IC50 in assay [1] worked out at 0.006 µM; in assay [2] (setting [5]), 0.048 µM; in assay [3] it was 0.111 µM.
For the molecule `COc1cc2nn([C@@H]3CCC4(C[C@@H]3C)CN(C(C)=O)C4)cc2cc1C(=O)Nc1cnc2cccnn12` (single isomer, unassigned) [Example 64], the IC50 in assay [1] is less than 0.0005 µM; in assay [2] (setting [5]), 0.018 µM; in assay [3] it was 0.038 µM.
Take `COc1cc2nn([C@H]3CCC[C@@H](O)C3)cc2cc1C(=O)Nc1cnn2cccnc12` (single isomer, unassigned) [Example 14]: the values for the IC50 in assay [1], in assay [2] (setting [5]) and in assay [3] were 0.0177 µM, 0.038 µM and 0.171 µM, respectively.
In the case of `COc1cc2nn([C@H]3CC[C@H](O)C[C@@H]3C)cc2cc1C(=O)Nc1cnn2cccnc12` (single isomer, unassigned) [Example 38], the IC50 stood at 0.0046 µM in assay [1], 0.031 µM in assay [2] (setting [4]) and 0.186 µM in assay [3].
With `COc1cc2nn([C@H]3CC[C@H](N(C)C(C)=O)CC3)cc2cc1C(=O)Nc1cnc2cccnn12` [Example 23, N-(Imidazo[1,2-b]pyridazin-3-yl)-6-methoxy-2-((1r,4r)-4-(N-methylacetamido)cyclohexyl)-2H-indazole-5-carboxamide], the IC50 in assay [1] is 0.0002 µM; in assay [2] (setting [4]), 0.007 µM; in assay [3], 0.005 µM.
Regarding `CC(=O)N1CC2(CC[C@@H](n3cc4cc(C(=O)Nc5cnn6cccnc56)c(OC5CC5)cc4n3)[C@H](C)C2)C1` (single isomer, unassigned) [Example 29], the IC50 in assay [1] was 0.0005 µM; in assay [2] (setting [4]), 0.02 µM; in assay [3], 0.031 µM.
As to `COc1cc2nn([C@@H]3CCC4(C[C@@H]3C)CN(C(C)=O)C4)cc2cc1C(=O)Nc1cnc2cccnn12` (single isomer, unassigned) [Example 65], the half-maximal inhibitory concentration (IC50) in assay [1] was found to be 0.0011 µM; in assay [2] (setting [5]) it was 0.052 µM; in assay [3], 0.044 µM.
Consider `COc1cc2nn(C3CCC4(CC3)CN(C(C)=O)C4)cc2cc1C(=O)Nc1cnc2cccnn12` [Example 21, 2-(2-Acetyl-2-azaspiro[3.5]nonan-7-yl)-N-(imidazo[1,2-b]pyridazin-3-yl)-6-methoxy-2H-indazole-5-carboxamide], for which the IC50 came out at 0.0007 µM in assay [1], 0.017 µM in assay [2] (setting [4]) and 0.036 µM in assay [3].
